We go through one compound from patent publication US20240350418A1, “LIPID-BASED COMPOSITION FOR ORAL ADMINISTRATION OF BRADYKININ B2-RECEPTOR ANTAGONISTS” (PHARVARIS GMBH, priority 2021, published 2024).

For one data set, the target named is T1, dog B2 receptor (Canis lupus familiaris, UniProt Q9BDQ4).
T1 sequence (Q9BDQ4 1-392): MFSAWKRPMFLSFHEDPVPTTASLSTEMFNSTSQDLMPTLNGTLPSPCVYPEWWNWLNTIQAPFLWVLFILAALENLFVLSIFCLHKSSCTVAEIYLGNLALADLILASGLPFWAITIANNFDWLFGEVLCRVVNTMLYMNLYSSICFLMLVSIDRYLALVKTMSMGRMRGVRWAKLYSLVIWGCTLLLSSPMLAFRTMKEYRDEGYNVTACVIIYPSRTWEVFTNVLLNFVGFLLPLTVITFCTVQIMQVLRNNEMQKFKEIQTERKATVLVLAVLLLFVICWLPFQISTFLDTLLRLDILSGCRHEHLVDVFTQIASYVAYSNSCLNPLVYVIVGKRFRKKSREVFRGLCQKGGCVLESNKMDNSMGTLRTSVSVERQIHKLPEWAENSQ
Nature of the data set: In vitro pharmacology testing, antagonist potency. In kind it is biochemical.

In another data set the target is T2, human B2 receptor (Homo sapiens, UniProt P30411).
T2 sequence (P30411 1-391): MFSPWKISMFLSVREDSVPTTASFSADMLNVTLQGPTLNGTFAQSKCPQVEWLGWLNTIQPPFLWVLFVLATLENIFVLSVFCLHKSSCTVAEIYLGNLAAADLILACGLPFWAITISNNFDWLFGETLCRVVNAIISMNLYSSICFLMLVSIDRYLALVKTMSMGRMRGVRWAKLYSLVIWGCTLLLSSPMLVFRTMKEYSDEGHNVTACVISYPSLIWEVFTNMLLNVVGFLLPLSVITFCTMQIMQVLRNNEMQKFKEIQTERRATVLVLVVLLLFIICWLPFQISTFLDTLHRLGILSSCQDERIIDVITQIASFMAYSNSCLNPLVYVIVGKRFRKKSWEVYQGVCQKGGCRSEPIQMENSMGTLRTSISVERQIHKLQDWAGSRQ
Put plainly: In vitro pharmacology testing, antagonist potency. In kind it is biochemical.

For the next data set, the target named is T3, bradykinin B2 receptor (Homo sapiens, UniProt P30411).
T3 sequence (P30411 1-391): T2 sequence (P30411 1-391)
Nature of the data set: Estimated therapeutic efficacious threshold plasma concentration. It counts as in vivo.

The next data set deals with monkey B2 receptor. Put plainly: In vitro pharmacology testing, antagonist potency. In kind it is biochemical.
A short description of data set [1]: Single dose pharmacokinetic study in monkeys. In kind it is in vivo, Cynomolgus monkeys. Particulars: after administration, except one animal treated with the Test Formulation. On the procedure:
The pharmacokinetic properties of a liquid composition according to the invention after a single oral administration in Cynomolgus monkeys was studied and compared with those of a suspension of the same API in an aqueous carrier comprising methylcellulose (1 wt. %). The Test Formulation was based on composition E of Example 1, except that the concentration of the API was 5 mg/mL in essentially the same liquid vehicle as composition E. The Comparative Formulation comprised the same API at a concentration of 2 mg/mL, formulated as an aqueous drug suspension further comprising methylcellulose (1 wt %). […]
The pharmacokinetic parameters were determined from the individual plasma concentrations by non-compartmental analysis, using Kinetica™ 4.4.1 (Thermo Fisher). […]
Maximum plasma concentration (Cmax), sampling time of Cmax (Tmax), and sampling time of the last plasma concentration >LLOQ (Tlast) parameters were determined from the observations. The area under the plasma concentration-time curve from the time of dosing to the last quantifiable concentration was calculated using the linear up/logarithmic down trapezoidal rule (AUClast). At least 3 consecutive quantifiable concentrations had to be available for AUC calculation. […]
The percentage of extrapolated AUC from Tlast to infinity was calculated by Kinetica™ 4.4.1, using the following equation: […]

In the next data set the target is T4, rat B2 receptor (Rattus norvegicus, UniProt P25023).
T4 sequence (P25023 1-396): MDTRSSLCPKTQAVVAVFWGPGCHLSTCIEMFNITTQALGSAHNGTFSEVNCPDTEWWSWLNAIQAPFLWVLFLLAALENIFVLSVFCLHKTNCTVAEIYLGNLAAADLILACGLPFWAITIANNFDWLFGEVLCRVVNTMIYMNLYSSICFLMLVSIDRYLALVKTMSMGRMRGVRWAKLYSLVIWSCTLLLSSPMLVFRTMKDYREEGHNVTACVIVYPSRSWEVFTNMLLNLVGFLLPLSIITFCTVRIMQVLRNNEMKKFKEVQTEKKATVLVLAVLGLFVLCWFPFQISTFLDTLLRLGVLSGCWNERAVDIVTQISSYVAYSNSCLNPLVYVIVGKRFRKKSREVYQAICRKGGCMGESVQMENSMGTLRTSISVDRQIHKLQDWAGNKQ
Nature of the data set: In vitro pharmacology testing, antagonist potency. It counts as biochemical.

The next data set concerns the target T5, mouse B2 receptor (Mus musculus, UniProt P32299).
T5 sequence (P32299 1-392): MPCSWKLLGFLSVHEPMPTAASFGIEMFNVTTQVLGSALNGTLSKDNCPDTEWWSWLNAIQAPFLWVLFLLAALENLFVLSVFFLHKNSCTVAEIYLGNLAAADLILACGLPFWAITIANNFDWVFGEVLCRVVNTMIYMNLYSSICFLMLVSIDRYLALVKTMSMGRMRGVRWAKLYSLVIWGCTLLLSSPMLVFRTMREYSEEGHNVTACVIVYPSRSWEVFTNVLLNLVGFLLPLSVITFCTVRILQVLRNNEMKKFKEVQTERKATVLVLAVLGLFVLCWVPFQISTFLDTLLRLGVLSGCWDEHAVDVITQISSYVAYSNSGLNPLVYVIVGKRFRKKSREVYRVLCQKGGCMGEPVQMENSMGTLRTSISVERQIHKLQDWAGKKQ
Put plainly: In vitro pharmacology testing, antagonist potency. In kind it is biochemical.

For `[2H][C@@](C)(NC(=O)COC(F)F)c1cc(F)cc(Cl)c1COc1cccc2c(-c3ncnn3C)cc(C)nc12` [API, (S)-N-(1-deutero-1-(3-chloro-5-fluoro-2-((2-methyl-4-(1-methyl-1H-1,2,4-triazol-5-yl)quinolin-8-yloxy)methyl)phenyl)ethyl)-2-(difluoromethoxy)acetamide monohydrate], the antagonist potency result was “low antagonist potency” on dog B2 receptor; “high antagonist potency” at human B2 receptor; “high antagonist potency” in the data set on monkey B2 receptor; “low antagonist potency” at rat B2 receptor; “low antagonist potency” on mouse B2 receptor. In addition, at bradykinin B2 receptor, the “estimated EC50 (therapeutic efficacious threshold plasma concentration)” value was 2.4 ng/mL. Moreover, the “estimated EC85 (therapeutic efficacious threshold plasma concentration)” value on bradykinin B2 receptor is 13.8 ng/mL. For the same compound, the “time up to which API plasma concentrations were quantifiable” value in data set [1] is on record as “up to 24 hours”.
